Biological target: PAS domain-containing serine/threonine-protein kinase (Homo sapiens, UniProt Q96RG2)
Assay: Inhibition of GST-tagged human recombinant PASK expressed in Baculovirus based system using Ulight-peptide substrate incubated for 2 hrs by TR-FRET assay

PAS domain-containing serine/threonine-protein kinase, sequence (Q96RG2 whole entry, the tested form may be a part): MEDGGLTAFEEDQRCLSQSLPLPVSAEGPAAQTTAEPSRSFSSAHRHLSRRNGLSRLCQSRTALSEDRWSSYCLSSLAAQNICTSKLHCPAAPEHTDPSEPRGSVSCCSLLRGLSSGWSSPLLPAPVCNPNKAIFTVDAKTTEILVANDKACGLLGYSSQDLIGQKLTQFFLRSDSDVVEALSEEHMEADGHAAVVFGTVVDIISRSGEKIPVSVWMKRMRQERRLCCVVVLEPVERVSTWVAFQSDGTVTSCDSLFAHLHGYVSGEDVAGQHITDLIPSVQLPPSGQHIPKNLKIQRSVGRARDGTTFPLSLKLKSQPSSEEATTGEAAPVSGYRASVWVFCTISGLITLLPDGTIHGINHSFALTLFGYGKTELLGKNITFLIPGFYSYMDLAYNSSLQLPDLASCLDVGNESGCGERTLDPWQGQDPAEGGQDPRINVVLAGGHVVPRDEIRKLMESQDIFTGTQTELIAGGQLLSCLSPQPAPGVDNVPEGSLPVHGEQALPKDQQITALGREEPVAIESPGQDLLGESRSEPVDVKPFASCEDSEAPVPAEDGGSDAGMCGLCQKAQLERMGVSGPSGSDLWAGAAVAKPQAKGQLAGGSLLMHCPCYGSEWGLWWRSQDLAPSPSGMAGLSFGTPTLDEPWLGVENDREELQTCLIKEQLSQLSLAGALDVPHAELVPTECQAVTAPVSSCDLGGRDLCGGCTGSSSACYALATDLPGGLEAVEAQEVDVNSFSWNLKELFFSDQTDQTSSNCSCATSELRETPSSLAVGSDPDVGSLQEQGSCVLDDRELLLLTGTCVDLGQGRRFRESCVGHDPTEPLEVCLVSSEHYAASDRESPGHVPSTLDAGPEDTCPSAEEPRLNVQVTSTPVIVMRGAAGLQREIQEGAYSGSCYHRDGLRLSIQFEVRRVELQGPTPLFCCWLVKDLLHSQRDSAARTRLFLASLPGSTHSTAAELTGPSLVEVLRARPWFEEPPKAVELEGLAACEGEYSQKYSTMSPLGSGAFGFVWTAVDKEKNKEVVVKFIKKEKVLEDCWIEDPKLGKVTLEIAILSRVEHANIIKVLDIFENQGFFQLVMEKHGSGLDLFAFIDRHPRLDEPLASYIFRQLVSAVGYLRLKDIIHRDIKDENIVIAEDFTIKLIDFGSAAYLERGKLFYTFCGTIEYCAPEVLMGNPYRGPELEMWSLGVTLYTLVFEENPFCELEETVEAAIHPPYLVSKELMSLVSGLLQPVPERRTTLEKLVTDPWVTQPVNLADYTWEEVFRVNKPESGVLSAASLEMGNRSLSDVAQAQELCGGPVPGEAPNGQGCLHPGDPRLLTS

| SMILES | IC50 |
| --- | --- |
| CN(c1nc2cc(C(=O)O)ccc2nc1-c1ccc(F)cc1)C1CCC(O)CC1 (centres undefined) | ≤ 10 µM |
| C[C@H]1CCCN1c1nc2cc(C(=O)O)ccc2nc1-c1coc2ccc(C(F)(F)F)cc12 | ≤ 10 µM |
| CC(C)N(C)c1nc2cc(C(=O)O)ccc2nc1-c1coc2ccc(C(F)(F)F)cc12 | ≤ 10 µM |
| C[C@H]1CCCCN1c1nc2cc(C(=O)O)ccc2nc1-c1cc2cc(F)ccc2o1 | ≤ 10 µM |

— ChEMBL document CHEMBL4418262, “Heterocyclic compounds for the inhibition of pask” (2016)
